Data published in PubChem BioAssay AID248 (DTP/NCI, 2004).
Toxic doses and inconclusive results are not listed. Cut-off read from the data, not from the text of the source: active = T/C of 150% or more; inactive = T/C below 125%.

Test system: L1210 leukemia ip in BDF1 mice, survival T/C
Test: NCI In Vivo Anticancer Drug Screen. Data for tumor model L1210 Leukemia (intraperitoneal) in B6D2F1 (BDF1) mice
Settings: endpoint: mean survival time, higher = longer survival
In short: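 Tumor cells were implanted, animals were treated, and survival was followed. The result divides the treated measurement by the vehicle-control measurement.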

[1] = dose: 100.0 mg/kg/injection, schedule: Q04DX002 (ip), vehicle: saline with Tween-80
[2] = dose: 100.0 mg/kg/injection, schedule: Q01DX009 (ip), vehicle: saline with Tween-80
[3] = dose: 100.0 mg/kg/injection, schedule: Q04DX003 (ip), vehicle: saline with Tween-80
[4] = dose: 200.0 mg/kg/injection, schedule: Q01DX009 (ip), vehicle: saline with Tween-80
[5] = dose: 200.0 mg/kg/injection, schedule: Q04DX003 (ip), vehicle: saline with Tween-80
[6] = dose: 400.0 mg/kg/injection, schedule: Q01DX009 (ip), vehicle: saline with Tween-80
[7] = dose: 400.0 mg/kg/injection, schedule: Q04DX003 (ip), vehicle: saline with Tween-80
[8] = dose: 100.0 mg/kg/injection, schedule: Q01DX001 (ip), vehicle: saline
[9] = dose: 200.0 mg/kg/injection, schedule: Q01DX001 (ip), vehicle: saline
[10] = dose: 400.0 mg/kg/injection, schedule: Q01DX001 (ip), vehicle: saline
[11] = dose: 100.0 mg/kg/injection, schedule: Q04DX002 (ip), vehicle: Klucel (hydroxypropylcellulose) (HPC)
[12] = dose: 200.0 mg/kg/injection, schedule: Q04DX002 (ip), vehicle: Klucel (hydroxypropylcellulose) (HPC)
[13] = dose: 400.0 mg/kg/injection, schedule: Q04DX002 (ip), vehicle: Klucel (hydroxypropylcellulose) (HPC)
[14] = dose: 100.0 mg/kg/injection, schedule: Q01DX009 (ip), vehicle: Klucel (hydroxypropylcellulose) (HPC)
[15] = dose: 200.0 mg/kg/injection, schedule: Q01DX009 (ip), vehicle: Klucel (hydroxypropylcellulose) (HPC)
[16] = dose: 400.0 mg/kg/injection, schedule: Q01DX009 (ip), vehicle: Klucel (hydroxypropylcellulose) (HPC)
[17] = dose: 100.0 mg/kg/injection, schedule: Q04DX002 (ip), vehicle: saline
[18] = dose: 200.0 mg/kg/injection, schedule: Q04DX002 (ip), vehicle: saline
[19] = dose: 50.0 mg/kg/injection, schedule: Q01DX001 (ip), vehicle: saline

Measured: T/C

CC(C)C(C=O)(CCN1CCCCC1)c1cccc2ccccc12 (stereo not given)
inactive: dose: 25.0 mg/kg/injection, schedule: Q04DX002 (ip), vehicle: saline with Tween-80 98 % of control | dose: 50.0 mg/kg/injection, schedule: Q04DX002 (ip), vehicle: saline with Tween-80 98 % of control | [1] 88 % of control

O=C(O)C(F)(F)C(F)(F)F.[Ag]
inactive: dose: 75.0 mg/kg/injection, schedule: Q01DX001 (ip), vehicle: acetone 87 % of control

OCC1C(CO)C2CC1C1N=NN(c3ccccc3)C21 (stereo not given)
inactive: [1] 93 % of control | dose: 200.0 mg/kg/injection, schedule: Q04DX002 (ip), vehicle: saline with Tween-80 90 % of control | dose: 400.0 mg/kg/injection, schedule: Q04DX002 (ip), vehicle: saline with Tween-80 93 % of control

Fc1ccc(C=Nc2cccc(Cl)c2)cc1
inactive: [2] 95 % of control | [3] 103 % of control | [4] 97 % of control | [5] 93 % of control | [6] 100 % of control | [7] 98 % of control

CN(C)c1nc2nc[nH]c2c(=S)n1C
inactive: [8] 97 % of control | [9] 97 % of control | [10] 95 % of control

CC(=O)c1c(C)n(C)c2ccccc12
inactive: dose: 100.0 mg/kg/injection, schedule: Q01DX001 (ip), vehicle: saline with Tween-80 103 % of control | [11] 95 % of control | [3] 95 % of control | dose: 200.0 mg/kg/injection, schedule: Q01DX001 (ip), vehicle: saline with Tween-80 101 % of control | [12] 98 % of control | [5] 92 % of control | dose: 400.0 mg/kg/injection, schedule: Q01DX001 (ip), vehicle: saline with Tween-80 103 % of control | [13] 109 % of control | [7] 93 % of control

CCCCC(CCCC)=NNc1ccc([N+](=O)[O-])cc1[N+](=O)[O-]
inactive: [8] 96 % of control | [9] 102 % of control | [10] 107 % of control

Cc1ccc(Cl)cc1N=Cc1ccccc1O
inactive: [3] 94 % of control | [7] 98 % of control

N#Cc1nc(-c2ccccc2)c(-c2ccccc2)nc1C#N
inactive: [14] 97 % of control | [15] 98 % of control | [16] 96 % of control

O=C(/C=C/c1cccc2ccccc12)c1ccc(Cl)cc1
inactive: dose: 100.0 mg/kg/injection, schedule: Q04DX003 (ip), vehicle: Klucel (hydroxypropylcellulose) (HPC) 105 % of control | dose: 200.0 mg/kg/injection, schedule: Q04DX003 (ip), vehicle: Klucel (hydroxypropylcellulose) (HPC) 96 % of control | dose: 400.0 mg/kg/injection, schedule: Q04DX003 (ip), vehicle: Klucel (hydroxypropylcellulose) (HPC) 94 % of control

CC1CCCN(C(=O)/C=C/c2ccccc2)C1 (stereo not given)
inactive: dose: 50.0 mg/kg/injection, schedule: Q04DX002 (ip), vehicle: saline 104 % of control | [11] 91 % of control | [17] 93 % of control | [12] 95 % of control | [18] 97 % of control | [13] 95 % of control

O=S1(=O)C2CCCC1(Cl)CCC2
inactive: dose: 75.0 mg/kg/injection, schedule: Q01DX001 (ip), vehicle: saline 107 % of control | dose: 150.0 mg/kg/injection, schedule: Q01DX001 (ip), vehicle: saline 102 % of control | dose: 300.0 mg/kg/injection, schedule: Q01DX001 (ip), vehicle: saline 93 % of control

O=CC(OC(=O)c1ccccc1)C(OC(=O)c1ccccc1)C(CO)OC(=O)c1ccccc1 (stereo not given)
inactive: dose: 100.0 mg/kg/injection, schedule: Q01DX001 (ip), vehicle: Klucel (hydroxypropylcellulose) (HPC) 106 % of control | dose: 200.0 mg/kg/injection, schedule: Q01DX001 (ip), vehicle: Klucel (hydroxypropylcellulose) (HPC) 95 % of control | dose: 400.0 mg/kg/injection, schedule: Q01DX001 (ip), vehicle: Klucel (hydroxypropylcellulose) (HPC) 98 % of control

c1ccc(CNCCCNCc2ccccn2)nc1
inactive: dose: 50.0 mg/kg/injection, schedule: Q01DX009 (ip), vehicle: saline with Tween-80 93 % of control | [2] 98 % of control

O=C1C(F)=C(N2CC2)C(=O)C(F)=C1N1CC1
inactive: dose: 0.39 mg/kg/injection, schedule: Q01DX009 (ip), vehicle: Klucel (hydroxypropylcellulose) (HPC) 104 % of control | dose: 0.78 mg/kg/injection, schedule: Q01DX009 (ip), vehicle: Klucel (hydroxypropylcellulose) (HPC) 100 % of control | dose: 0.78 mg/kg/injection, schedule: Q04DX003 (ip), vehicle: alcohol 113 % of control | dose: 1.56 mg/kg/injection, schedule: Q01DX009 (ip), vehicle: Klucel (hydroxypropylcellulose) (HPC) 116 % of control | dose: 1.56 mg/kg/injection, schedule: Q04DX003 (ip), vehicle: alcohol 105 % of control | dose: 3.12 mg/kg/injection, schedule: Q01DX009 (ip), vehicle: Klucel (hydroxypropylcellulose) (HPC) 102 % of control | dose: 3.12 mg/kg/injection, schedule: Q04DX003 (ip), vehicle: alcohol 105 % of control | dose: 6.25 mg/kg/injection, schedule: Q01DX009 (ip), vehicle: Klucel (hydroxypropylcellulose) (HPC) 93 % of control | dose: 6.25 mg/kg/injection, schedule: Q04DX003 (ip), vehicle: saline 110 % of control | dose: 9.2 mg/kg/injection, schedule: Q01DX009 (ip), vehicle: Klucel (hydroxypropylcellulose) (HPC) 98 % of control | dose: 14.0 mg/kg/injection, schedule: Q01DX009 (ip), vehicle: Klucel (hydroxypropylcellulose) (HPC) 87 % of control

COc1ccccc1CNCCCO
inactive: [19] 96 % of control | [8] 102 % of control | [9] 106 % of control | [10] 100 % of control

NNC(=O)c1ccccc1NCCO
inactive: [8] 101 % of control | [9] 97 % of control | [10] 101 % of control

S=C(N/N=C/c1ccc(Cl)cc1Cl)Nc1cccc2cccnc12
inactive: dose: 5.0 mg/kg/injection, schedule: Q01DX001 (ip), vehicle: saline 96 % of control | dose: 10.0 mg/kg/injection, schedule: Q01DX001 (ip), vehicle: saline 96 % of control | dose: 20.0 mg/kg/injection, schedule: Q01DX001 (ip), vehicle: saline 86 % of control | dose: 40.0 mg/kg/injection, schedule: Q01DX001 (ip), vehicle: saline 98 % of control | dose: 80.0 mg/kg/injection, schedule: Q01DX001 (ip), vehicle: saline 90 % of control

Nc1c(Cl)c(Cl)c2c(c1Cl)C(=O)c1cc(Cl)ccc1-2
inactive: dose: 100.0 mg/kg/injection, schedule: Q01DX001 (ip), vehicle: carboxymethylcellulose (CMC) 97 % of control | dose: 200.0 mg/kg/injection, schedule: Q01DX001 (ip), vehicle: carboxymethylcellulose (CMC) 108 % of control | dose: 400.0 mg/kg/injection, schedule: Q01DX001 (ip), vehicle: carboxymethylcellulose (CMC) 105 % of control

Clc1ccccc1C(N1CCCCC1)N1CCCCC1
inactive: [17] 88 % of control | [18] 92 % of control | dose: 400.0 mg/kg/injection, schedule: Q04DX002 (ip), vehicle: saline 95 % of control

CCCCC(CC)C(O)CC(O)CC (stereo not given)
inactive: [2] 92 % of control | [4] 92 % of control | [6] 95 % of control

OC(C(c1ccccc1)N1CCOCC1)C(O)(c1ccccc1)c1ccccc1 (stereo not given)
inactive: [8] 106 % of control | [9] 94 % of control | [10] 97 % of control

COc1cc(/C=C/C(N)=O)cc(OC)c1OC
inactive: dose: 25.0 mg/kg/injection, schedule: Q01DX009 (ip), vehicle: Klucel (hydroxypropylcellulose) (HPC) 104 % of control | dose: 50.0 mg/kg/injection, schedule: Q01DX009 (ip), vehicle: Klucel (hydroxypropylcellulose) (HPC) 114 % of control | [14] 101 % of control | [15] 104 % of control | [16] 102 % of control

Cn1cc2c(=O)n(OS(=O)(=O)c3ccccc3)c(=O)[nH]c2n1
inactive: [19] 106 % of control | [8] 93 % of control | [9] 106 % of control | [10] 100 % of control

CN(C)C(=O)c1cccc([N+](=O)[O-])c1
inactive: [3] 97 % of control | [5] 94 % of control

CC(N)C(=O)NC1C(CO)OC(n2cnc3c(N)ncnc32)C1O (stereo not given)
inactive: [8] 105 % of control | [9] 101 % of control | [10] 101 % of control

Cc1ccc2c3c1C(O)C(C(N)=O)C3CCS2 (stereo not given)
inactive: [9] 89 % of control | [10] 106 % of control

CC(C)(CC(=O)NNc1ccccc1)C(=O)O
inactive: [19] 97 % of control | [8] 102 % of control | [9] 100 % of control | [10] 102 % of control
